Legend:
[1] = molecular target: Delta-type opioid receptor (Homo sapiens, UniProt P41143); test: Binding affinity towards delta opioid receptor by the displacement of [125I]deltorphin
Mu-type opioid receptor = Mu-type opioid receptor (Homo sapiens, UniProt P35372); test: Binding affinity towards mu opioid receptor by the displacement of [125I]Enkephalin
[2] = molecular target: T1, Kappa-type opioid receptor (Homo sapiens, UniProt P41145); test: Binding affinity towards kappa opioid receptor by the displacement of [125I]-(D-Pro10)-Dynorphin A
[3] = molecular target: T1, Kappa-type opioid receptor; test: Functional activity in HEK293 cells overexpressing the human kappa opioid receptor was determined using a radiolabeled [35S]GTP-gamma-S, assay; format: cell-based

Mu-type opioid receptor, sequence (P35372 whole entry): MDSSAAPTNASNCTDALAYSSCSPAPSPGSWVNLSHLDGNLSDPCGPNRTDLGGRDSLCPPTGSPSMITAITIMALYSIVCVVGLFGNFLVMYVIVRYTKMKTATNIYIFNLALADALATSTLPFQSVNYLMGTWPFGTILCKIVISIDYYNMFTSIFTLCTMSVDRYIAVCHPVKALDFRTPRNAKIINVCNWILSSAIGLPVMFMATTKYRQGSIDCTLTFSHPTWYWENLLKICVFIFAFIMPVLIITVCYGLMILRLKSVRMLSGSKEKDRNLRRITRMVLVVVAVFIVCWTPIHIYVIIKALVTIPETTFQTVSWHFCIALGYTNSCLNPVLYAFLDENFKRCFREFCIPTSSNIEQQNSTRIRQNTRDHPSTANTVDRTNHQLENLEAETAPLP
Delta-type opioid receptor, sequence (P41143 whole entry): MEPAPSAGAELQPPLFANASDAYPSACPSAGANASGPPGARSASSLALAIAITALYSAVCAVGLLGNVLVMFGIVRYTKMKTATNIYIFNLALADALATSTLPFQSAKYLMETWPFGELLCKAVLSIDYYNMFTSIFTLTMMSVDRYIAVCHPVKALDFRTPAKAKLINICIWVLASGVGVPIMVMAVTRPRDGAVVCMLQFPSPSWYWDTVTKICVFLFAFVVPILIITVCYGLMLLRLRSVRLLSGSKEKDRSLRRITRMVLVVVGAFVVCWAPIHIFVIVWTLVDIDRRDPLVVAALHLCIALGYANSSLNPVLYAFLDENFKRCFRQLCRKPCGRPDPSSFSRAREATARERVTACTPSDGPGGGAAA
T1 sequence (P41145 whole entry): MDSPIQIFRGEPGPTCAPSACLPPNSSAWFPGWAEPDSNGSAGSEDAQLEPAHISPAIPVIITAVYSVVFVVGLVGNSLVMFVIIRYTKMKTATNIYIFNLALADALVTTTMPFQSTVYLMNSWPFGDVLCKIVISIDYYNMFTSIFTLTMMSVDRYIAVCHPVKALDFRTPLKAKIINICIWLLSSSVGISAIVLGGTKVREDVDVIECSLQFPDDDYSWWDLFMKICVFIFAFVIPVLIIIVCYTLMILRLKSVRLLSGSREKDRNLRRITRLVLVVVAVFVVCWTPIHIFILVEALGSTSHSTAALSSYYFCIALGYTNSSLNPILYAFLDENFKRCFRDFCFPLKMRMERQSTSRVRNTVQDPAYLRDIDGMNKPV

Compound | IC50 [1] [µM] | IC50 (Mu-type opioid receptor) [µM] | IC50 [2] [µM] | ED50 [3] [µM]
O=c1c(-c2cc(F)ccc2F)cccn1C(CN1CCCC1)c1ccccc1 (centres undefined) | > 10 | > 10 | 0.0225 | 
N#Cc1cccc(-c2cccn(C(CN3CCCC3)c3ccccc3)c2=O)c1 (centres undefined) | > 10 | 4.28 | 0.0053 | 
COc1ccc(-c2cccn(C(CN3CCCC3)c3ccccc3)c2=O)cc1 (centres undefined) | 5.21 | 1.46 | 0.0494 | 
O=c1c(-c2ccc3ccccc3c2)cccn1C(CN1CCCC1)c1ccccc1 (centres undefined) | > 10 | 2.68 | 0.0319 | 
O=c1c(-c2cccc([N+](=O)[O-])c2)cccn1C(CN1CCCC1)c1ccccc1 (centres undefined) | > 10 | 3.91 | 0.0022 | 
COc1ccccc1-c1cccn(C(CN2CCCC2)c2ccccc2)c1=O (centres undefined) | > 10 | 1.2 | 0.0195 | 
O=c1c(-c2ccc(OC(F)(F)F)cc2)cccn1C(CN1CCCC1)c1ccccc1 (centres undefined) | > 10 | 1.1 | 0.0342 | 
O=c1c(-c2ccccc2C(F)(F)F)cccn1C(CN1CCCC1)c1ccccc1 (centres undefined) | > 10 | 1.68 | 0.0057 | 
O=c1c(-c2ccc(F)cc2)cccn1C(CN1CCCC1)c1ccccc1 (centres undefined) | > 10 | > 10 | 0.0348 | 
O=c1ccc(-c2ccc(Cl)c(Cl)c2)cn1C(CN1CCCC1)c1ccccc1 (centres undefined) |  |  | 1.49 | 
O=c1c(-c2ccc(Cl)c(Cl)c2)cccn1C(CN1CCCC1)c1ccccc1 (centres undefined) | > 10 | 2.06 | 0.0023 | 
O=c1c(-c2ccc(Cl)cc2)cccn1C(CN1CCCC1)c1ccccc1 (centres undefined) | > 10 | 4.84 | 0.0055 | 
Cc1cccc(-c2cccn(C(CN3CCCC3)c3ccccc3)c2=O)c1 (centres undefined) | 0.639 | > 10 | 0.0793 | 
COc1ccc(Cl)cc1-c1cccn(C(CN2CCCC2)c2ccccc2)c1=O (centres undefined) | 4.17 | 1.24 | 0.0015 | 
O=c1c(-c2ccccc2)cccn1C(CN1CCCC1)c1ccccc1 (centres undefined) | > 10 | > 10 | 0.0563 | 
O=c1c(-c2ccc(C(F)(F)F)cc2)cccn1C(CN1CCCC1)c1ccccc1 (centres undefined) | > 10 | 2.72 | 0.0087 | 0.0494
O=c1c(-c2cc3ccccc3o2)cccn1C(CN1CCCC1)c1ccccc1 (centres undefined) |  |  | 0.271 | 
O=c1c(-c2cccs2)cccn1C(CN1CCCC1)c1ccccc1 (centres undefined) |  |  | 1.18 | 
O=c1ccc(-c2ccc(Cl)cc2)cn1C(CN1CCCC1)c1ccccc1 (centres undefined) |  |  | 0.524 | 
COc1ccc(OC)c(-c2cccn(C(CN3CCCC3)c3ccccc3)c2=O)c1 (centres undefined) | > 10 | > 5 | 0.00344 | 
O=c1c(-c2cccc(Cl)c2)cccn1C(CN1CCCC1)c1ccccc1 (centres undefined) | > 10 | 0.308 | 0.0024 | 
COc1ccc(F)cc1-c1cccn(C(CN2CCCC2)c2ccccc2)c1=O (centres undefined) | 4.35 | 3.46 | 0.0034 | 
